Experimental data reported in US11311520B2, “Substituted dihydroimidazopyridinediones as MKNK1 and MKNK2 inhibitors” (Bayer Pharma Aktiengesellschaft, priority 2017, dated 2022).
Structures can show the parent of a compound that is named as a salt.

Target: human full-length MKNK1 (Homo sapiens (Human), UniProt Q9BUB5, T344D)
Assay: MKNK1 kinase high ATP assay (TR-FRET)
Assay type: biochemical
Conditions: 2 mM ATP, 15 min preincubation with enzyme, GST-MKNK1 (T344D)
How it was run: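 GST-tagged full-length human MKNK1 (1-424, T344D, baculovirus-expressed) preincubated 15 min at 22 °C with compound, then reacted 30 min at 22 °C with 2 mM ATP and 0.06 μM biotinylated peptide (final) in HEPES pH 7.5. Phospho-substrate by TR-FRET (665/622 nm ratio), normalised to no-inhibitor and no-enzyme controls.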

Sequence of human full-length MKNK1 (Q9BUB5 other isoform, or with tags, fused parts or gaps T344D): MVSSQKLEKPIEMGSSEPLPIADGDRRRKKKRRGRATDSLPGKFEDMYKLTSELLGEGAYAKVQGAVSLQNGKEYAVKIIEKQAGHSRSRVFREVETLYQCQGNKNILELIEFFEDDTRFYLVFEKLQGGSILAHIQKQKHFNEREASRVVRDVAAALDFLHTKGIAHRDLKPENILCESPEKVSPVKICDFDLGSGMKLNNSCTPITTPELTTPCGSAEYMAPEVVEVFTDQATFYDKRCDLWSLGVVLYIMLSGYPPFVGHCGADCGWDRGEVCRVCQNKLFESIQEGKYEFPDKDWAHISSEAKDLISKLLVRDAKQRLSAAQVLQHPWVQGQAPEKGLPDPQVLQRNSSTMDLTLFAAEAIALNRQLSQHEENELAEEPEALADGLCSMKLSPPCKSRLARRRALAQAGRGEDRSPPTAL

## Cc1cc(Nc2ncnc3sc(C(=O)N4CCC(N(C)C)CC4)cc23)c(=O)n2c1C(=O)NC21CCCC1 [Example 64, 6′-[(6-{[4-(Dimethylamino)piperidin-1-yl]carbonyl}thieno[2,3-d]pyrimidin-4-yl)amino]-8′-methyl-2′H-spiro[cyclopentane-1,3′-imidazo[1,5-a]pyridine]-1′,5′-dione]
  IC50: 5.5 nM

## Cc1cc(Nc2ncnc3sc(C(=O)N(C)CCN(C)C)cc23)c(=O)n2c1C(=O)NC21CCC1 [Example 152, N-[2-(Dimethylamino)ethyl]-N-methyl-4-[(8′-methyl-1′,5′-dioxo-1′,5′-dihydro-2′H-spiro[cyclobutane-1,3′-imidazo[1,5-a]pyridin]-6′-yl)amino]thieno[2,3-d]pyrimidine-6-carboxamide]
  IC50: 7.4 nM

## COCCN(C)C(=O)c1sc2ncnc(Nc3cc(C)c4n(c3=O)C3(CCCCC3)NC4=O)c2c1C [Example 18, N-(2-methoxyethyl)-N,5-dimethyl-4-[(8′-methyl-1′,5′-dioxo-1′,5′-dihydro-2′H-spiro[cyclohexane-1,3′-imidazo[1,5-a]pyridin]-6′-yl)amino]thieno[2,3-d]pyrimidine-6-carboxamide]
  IC50: 105 nM

## Cc1cc(Nc2ncnc(N)n2)c(=O)n2c1C(=O)N[C@]21CC[C@@](O)(C(F)(F)F)CC1 [Example 190, (cis)-6′-[(4-amino-1,3,5-triazin-2-yl)amino]-4-hydroxy-8′-methyl-4-(trifluoromethyl)-2′H-spiro[cyclohexane-1,3′-imidazo[1,5-a]pyridine]-1′,5′-dione]
  IC50: 31.4 nM

## Cc1cc(Nc2ncnc3[nH]cnc23)c(=O)n2c1C(=O)NC21CCC(F)(F)CC1 [Example 106, 4,4-Difluoro-8′-methyl-6′-(9H-purin-6-ylamino)-2′H-spiro[cyclohexane-1,3′-imidazo[1,5-a]pyridine]-1′,5′-dione]
  IC50: 3.5 nM

## Cc1cc(Nc2ncnc3c2CNC3)c(=O)n2c1C(=O)NC2(C)C [Example 165, 6-(6,7-Dihydro-5H-pyrrolo[3,4-d]pyrimidin-4-ylamino)-3,3,8-trimethyl-2,3-dihydroimidazo[1,5-a]pyridine-1,5-dione]
  IC50: 168 nM

## Cc1cc(Nc2ncnc3sc(C(=O)N(C)C)cc23)c(=O)n2c1C(=O)NC21CCCCC1 [Example 33, N,N-Dimethyl-4-[(8′-methyl-1′,5′-dioxo-1′,5′-dihydro-2′H-spiro[cyclohexane-1,3′-imidazo[1,5-a]pyridin]-6′-yl)amino]thieno[2,3-d]pyrimidine-6-carboxamide hydrochloride]
hydrochloride
  IC50: 70.7 nM

## Cc1cc(Nc2ncnc3c2CN(C(=O)OC(C)(C)C)C3)c(=O)n2c1C(=O)NC21CCC(F)(F)CC1 [Example 104, tert-Butyl 4-[(4,4-difluoro-8′-methyl-1′,5′-dioxo-1′,5′-dihydro-2′H-spiro[cyclohexane-1,3′-imidazo[1,5-a]pyridin]-6′-yl)amino]-5,7-dihydro-6H-pyrrolo[3,4-d]pyrimidine-6-carboxylate]
  IC50: 30.2 nM

## Cc1cc(Nc2ncnc3ccc(F)cc23)c(=O)n2c1C(=O)NC21CCCC1 [Example 185, 6′-[(6-fluoroquinazolin-4-yl)amino]-8′-methyl-2′H-spiro[cyclopentane-1,3′-imidazo[1,5-a]pyridine]-1′,5′-dione]
  IC50: 7.9 nM

## Cc1cc(Nc2ncnc3cccc(C)c23)c(=O)n2c1C(=O)N[C@]21CC[C@@](O)(C(F)(F)C(F)(F)F)CC1 [Example 191, (cis)-4-hydroxy-8′-methyl-6′-[(5-methylquinazolin-4-yl)amino]-4-(pentafluoroethyl)-2′H-spiro[cyclohexane-1,3′-imidazo[1,5-a]pyridine]-1′,5′-dione]
  IC50: 67.8 nM

## Cc1cc(Nc2ncnc3sc(C(=O)N4C[C@H]5C[C@@H]4CO5)cc23)c(=O)n2c1C(=O)NC21CCC1 [Example 158, 8′-Methyl-6′-({6-[(1R,4R)-2-oxa-5-azabicyclo[2.2.1]hept-5-ylcarbonyl]thieno[2,3-d]pyrimidin-4-yl}amino)-2′H-spiro[cyclobutane-1,3′-imidazo[1,5-a]pyridine]-1′,5′-dione]
  IC50: 5 nM

## Cc1cc(Nc2ncnc3sc(C(=O)N4CC(NC(=O)OC(C)(C)C)C4)cc23)c(=O)n2c1C(=O)NC21CCC(F)(F)CC1 [Example 83, tert-Butyl [1-({4-[(4,4-difluoro-8′-methyl-1′,5′-dioxo-1′,5′-dihydro-2′H-spiro[cyclohexane-1,3′-imidazo[1,5-a]pyridin]-6′-yl)amino]thieno[2,3-d]pyrimidin-6-yl}carbonyl)azetidin-3-yl]carbamate]
  IC50: 12.2 nM
